Source: patent US20240016245A1, “ANTIMICROBIAL FACEMASK” (BMG (British Medical Group) Limited, priority 2020, published 2024)

Experiment: Compatibility of surfactants with copper sulfate solutions for coating fabric
Format: physicochemical

Row | Compound | precipitation from copper sulfate solutions / solution suitable for coating | solubility in solutions of copper sulfate (in solutions of copper sulfate)
1 | CCCCCCCCCCCC[N+](C)(C)[O-] [dimethyl dodecylamine N-oxide] | causing precipitation | 
2 | CCCCCCCCCCCC[N+](C)(C)CC(=O)O [dimethyl dodecylglycine betaine] | did not cause precipitation | 
3 | CCCCCCCCCCCC[N+](C)(C)CCCS(=O)(=O)O [lauryl sulfobetaine] | did not cause precipitation | 
4 | CCCCCCCCCCCCOS(=O)(=O)[O-].[Na+] [sodium dodecylsulfate] | acceptable solution for coating | 
5 | sodium dodecylbenzenesulfonate |  | very low and insufficient solubility
